# According to the supplement of paper PMC10307832:
# What was measured:
# [1] = compound: CC1=CC(=CC=C1)NC2=NC(=CS2)C3=CC=NC=C3 + NC(=O)Nc1cc(-c2cccc(F)c2)sc1C(=O)N[C@H]1CCCNC1 [AZD7762] (partner 0.2 µM); test: relative viability (nuclei count vs DMSO), 5 days (fraction); higher = more cells survive
# Outline: (§1)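 Lung cancer cell lines in 1536-well plates got either a single drug or a fixed anchor-drug dose together with five library-drug doses (not always all listed) in √10 steps, by pin tool, on the day after seeding. Nuclei were counted after 5 days, and relative viability is the treated-to-vehicle ratio of nuclei counts. Values are medians of duplicate plates.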
# [2] = compound: CC1=CC(=CC=C1)NC2=NC(=CS2)C3=CC=NC=C3 + CC(=O)Nc1cccc(-n2c(=O)n(C3CC3)c(=O)c3c(Nc4ccc(I)cc4F)n(C)c(=O)c(C)c32)c1 [Trametinib] (partner 0.02 µM); test: as above
# Outline: as §1
Cell Line,relative viability ([1]; first compound 0.08 µM),relative viability ([1]; first compound 0.253 µM),relative viability ([1]; first compound 0.8 µM),relative viability ([1]; first compound 2.53 µM),relative viability ([1]; first compound 8 µM),relative viability ([2]; first compound 0.08 µM),relative viability ([2]; first compound 0.253 µM),relative viability ([2]; first compound 0.8 µM),relative viability ([2]; first compound 2.53 µM),relative viability ([2]; first compound 8 µM)
201T,0.811,0.79,0.777,0.865,0.618,0.75,0.76,0.76,0.778,0.659
A-427,0.646,0.795,0.815,0.81,0.646,0.572,0.716,0.714,0.719,0.624
ABC-1,0.675,0.613,0.688,0.628,0.881,–,–,–,–,–
BEN,0.641,0.614,0.662,0.566,0.659,0.82,1.16,0.99,0.994,0.898
CAL-12T,0.527,0.63,0.604,0.516,0.561,0.282,0.325,0.342,0.236,0.305
COR-L23,–,–,–,–,–,0.44,0.598,0.59,0.568,0.567
COR-L 105,–,–,–,–,–,0.442,0.465,0.454,0.424,0.38
ChaGo-K-1,0.842,0.83,0.835,0.828,0.75,0.903,0.882,0.858,0.929,0.839
EKVX,0.63,0.703,–,0.764,0.524,0.29,0.308,–,0.313,0.319
EMC-BAC-2,0.933,1.02,1.14,0.909,1.17,0.798,–,1.01,0.879,0.823
EPLC-272H,0.201,0.153,0.445,–,0.215,0.308,0.271,0.296,–,0.277
H3255,0.936,0.902,0.866,0.665,0.765,0.597,0.602,0.569,0.585,0.403
HARA,0.306,0.466,0.317,0.356,0.273,0.561,0.742,0.734,0.447,0.629
HCC-15,1.11,1.19,1.03,1.03,1.02,0.369,0.383,0.373,0.348,0.343
HCC-44,0.849,0.853,0.946,0.876,0.88,0.939,0.847,0.701,0.687,0.695
HCC-78,0.674,0.409,0.613,0.449,0.658,0.505,0.666,0.617,0.563,0.753
HCC-366,0.32,0.322,0.266,0.24,0.128,0.357,0.273,0.183,0.214,0.168
HCC-827,0.352,0.418,0.53,0.216,0.28,0.497,0.529,0.564,0.542,0.53
